Experimental data from the supplement of paper PMC6315032.

Experiments:
Assay in all cases: apparent dissociation constant (pKDapp, Kinobeads competition, Cheng-Prusoff corrected) (-log10 M); higher = tighter binding
Details in all cases: affinity matrix / lysate: Kinobeads, mixed HEK293/K-562/placenta lysate
ACVR1B = ACVR1B (UniProt P36896)
ADCK4 = ADCK4 (UniProt Q96D53)
ADCK5 = ADCK5 (UniProt Q3MIX3)
AKT1 = AKT1 (UniProt P31749)
BRD4 = BRD4 (UniProt O60885)
BTK = BTK (UniProt Q06187)
CAMK1 = CAMK1 (UniProt Q14012)
CAMK1D = CAMK1D (UniProt Q8IU85)
CAMKK2 = CAMKK2 (UniProt Q96RR4)
CDK9 = CDK9 (UniProt P50750)
CSNK1G3 = CSNK1G3 (UniProt Q9Y6M4)
DDR2 = DDR2 (UniProt Q16832)
EIF2AK3 = EIF2AK3 (UniProt Q9NZJ5)
EPHB3 = EPHB3 (UniProt P54753)
JAK2 = JAK2 (UniProt O60674)
MAP3K1 = MAP3K1 (UniProt Q13233)
MAPK15 = MAPK15 (UniProt Q8TD08)
PAK6 = PAK6 (UniProt Q9NQU5)
PCTK3 = PCTK3 (UniProt Q07002)
PHKG2 = PHKG2 (UniProt P15735)
PLK4 = PLK4 (UniProt O00444)
PRKACB = PRKACB (UniProt P22694)
PTK2B = PTK2B (UniProt Q14289)
RNASEL = RNASEL (UniProt Q05823)
RP6-213H19 1 = biological target: RP6-213H19 1
SLK = SLK (UniProt Q9H2G2)
SRC = SRC (UniProt P12931)
STK16 = STK16 (UniProt O75716)
TNK1 = TNK1 (UniProt Q13470)
UHMK1 = UHMK1 (UniProt Q8TAS1)
WNK1 = WNK1 (UniProt Q9H4A3)
AURKC = AURKC (UniProt Q9UQB9)
CSNK1G2 = CSNK1G2 (UniProt P78368)
ROCK2 = ROCK2 (UniProt O75116)

Sequence of EPHB3 (P54753 whole entry): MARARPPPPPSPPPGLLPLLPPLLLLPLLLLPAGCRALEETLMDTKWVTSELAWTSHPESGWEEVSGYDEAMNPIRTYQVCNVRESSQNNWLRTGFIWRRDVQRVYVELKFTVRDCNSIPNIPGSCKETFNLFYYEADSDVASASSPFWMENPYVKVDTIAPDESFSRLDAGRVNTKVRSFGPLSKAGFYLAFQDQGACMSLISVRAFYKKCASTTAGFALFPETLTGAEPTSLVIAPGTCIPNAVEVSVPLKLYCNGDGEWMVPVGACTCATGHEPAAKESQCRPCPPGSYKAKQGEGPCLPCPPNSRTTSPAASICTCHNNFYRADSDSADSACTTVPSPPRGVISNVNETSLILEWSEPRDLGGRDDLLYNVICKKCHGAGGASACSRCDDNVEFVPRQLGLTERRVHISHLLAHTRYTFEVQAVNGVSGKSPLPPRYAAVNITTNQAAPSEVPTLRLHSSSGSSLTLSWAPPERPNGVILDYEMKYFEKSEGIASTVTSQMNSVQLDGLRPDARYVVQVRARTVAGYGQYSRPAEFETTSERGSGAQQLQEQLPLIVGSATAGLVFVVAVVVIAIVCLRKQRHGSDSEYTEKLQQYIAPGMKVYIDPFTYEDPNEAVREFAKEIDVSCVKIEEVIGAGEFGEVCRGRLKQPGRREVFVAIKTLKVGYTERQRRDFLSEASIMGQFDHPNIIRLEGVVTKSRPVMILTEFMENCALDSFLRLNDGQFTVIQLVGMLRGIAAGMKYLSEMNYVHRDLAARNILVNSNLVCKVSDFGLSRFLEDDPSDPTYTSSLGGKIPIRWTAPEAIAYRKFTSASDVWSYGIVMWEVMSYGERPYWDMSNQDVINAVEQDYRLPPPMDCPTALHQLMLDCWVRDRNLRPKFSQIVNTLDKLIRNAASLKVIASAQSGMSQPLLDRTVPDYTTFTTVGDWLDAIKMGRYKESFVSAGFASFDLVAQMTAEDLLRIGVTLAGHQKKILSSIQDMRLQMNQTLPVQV
Sequence of AKT1 (P31749 whole entry): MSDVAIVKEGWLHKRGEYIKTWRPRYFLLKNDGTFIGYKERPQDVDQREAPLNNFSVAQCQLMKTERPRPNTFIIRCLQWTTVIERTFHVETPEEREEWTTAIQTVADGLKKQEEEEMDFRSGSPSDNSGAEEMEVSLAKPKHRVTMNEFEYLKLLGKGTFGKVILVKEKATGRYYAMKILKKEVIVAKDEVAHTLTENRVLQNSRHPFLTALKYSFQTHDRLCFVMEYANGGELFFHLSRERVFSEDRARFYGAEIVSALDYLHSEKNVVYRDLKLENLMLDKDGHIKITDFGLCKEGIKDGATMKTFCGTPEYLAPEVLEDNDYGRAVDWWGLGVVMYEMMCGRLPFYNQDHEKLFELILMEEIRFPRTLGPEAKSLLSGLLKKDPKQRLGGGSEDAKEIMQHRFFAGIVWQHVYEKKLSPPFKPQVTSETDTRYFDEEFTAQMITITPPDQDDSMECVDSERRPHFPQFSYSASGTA
Sequence of MAP3K1 (Q13233 whole entry): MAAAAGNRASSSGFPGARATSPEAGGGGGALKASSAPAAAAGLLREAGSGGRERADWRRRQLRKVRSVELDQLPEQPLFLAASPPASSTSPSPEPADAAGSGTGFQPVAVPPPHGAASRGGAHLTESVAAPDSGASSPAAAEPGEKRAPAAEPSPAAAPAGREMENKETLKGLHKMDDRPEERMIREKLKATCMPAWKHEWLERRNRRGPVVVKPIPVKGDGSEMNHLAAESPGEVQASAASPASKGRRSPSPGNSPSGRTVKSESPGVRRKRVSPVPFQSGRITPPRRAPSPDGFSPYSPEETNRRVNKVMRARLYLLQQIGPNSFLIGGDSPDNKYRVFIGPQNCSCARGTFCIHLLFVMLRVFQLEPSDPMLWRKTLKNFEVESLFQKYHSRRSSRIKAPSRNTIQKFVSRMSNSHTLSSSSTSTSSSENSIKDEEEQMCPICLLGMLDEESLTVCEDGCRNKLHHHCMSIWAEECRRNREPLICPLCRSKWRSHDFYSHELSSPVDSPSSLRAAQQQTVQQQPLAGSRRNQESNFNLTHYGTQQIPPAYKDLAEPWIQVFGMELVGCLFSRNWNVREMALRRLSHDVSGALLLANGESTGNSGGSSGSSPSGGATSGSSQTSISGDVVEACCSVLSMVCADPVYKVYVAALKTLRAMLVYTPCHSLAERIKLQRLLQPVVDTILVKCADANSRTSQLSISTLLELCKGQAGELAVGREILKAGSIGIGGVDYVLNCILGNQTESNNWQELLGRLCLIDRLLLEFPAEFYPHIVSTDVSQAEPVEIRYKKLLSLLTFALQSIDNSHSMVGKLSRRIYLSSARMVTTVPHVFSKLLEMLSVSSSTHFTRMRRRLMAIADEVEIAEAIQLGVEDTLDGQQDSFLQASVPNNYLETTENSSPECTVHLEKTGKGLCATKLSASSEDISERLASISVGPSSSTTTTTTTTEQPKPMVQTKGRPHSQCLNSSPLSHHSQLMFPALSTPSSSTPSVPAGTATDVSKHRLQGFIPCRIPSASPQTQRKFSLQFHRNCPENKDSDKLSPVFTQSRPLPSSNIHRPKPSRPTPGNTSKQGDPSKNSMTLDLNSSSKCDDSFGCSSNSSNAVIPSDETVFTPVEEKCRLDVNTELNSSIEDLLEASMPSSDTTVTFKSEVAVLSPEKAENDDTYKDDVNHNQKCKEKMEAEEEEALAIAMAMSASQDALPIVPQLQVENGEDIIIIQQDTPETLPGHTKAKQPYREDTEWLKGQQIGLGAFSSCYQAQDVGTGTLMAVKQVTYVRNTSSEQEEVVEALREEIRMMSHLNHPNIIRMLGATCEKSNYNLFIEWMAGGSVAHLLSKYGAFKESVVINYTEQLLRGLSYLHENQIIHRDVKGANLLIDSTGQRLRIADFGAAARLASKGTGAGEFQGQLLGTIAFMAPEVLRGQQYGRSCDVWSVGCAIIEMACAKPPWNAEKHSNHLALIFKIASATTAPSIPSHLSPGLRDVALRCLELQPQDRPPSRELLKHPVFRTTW
Sequence of STK16 (O75716 whole entry): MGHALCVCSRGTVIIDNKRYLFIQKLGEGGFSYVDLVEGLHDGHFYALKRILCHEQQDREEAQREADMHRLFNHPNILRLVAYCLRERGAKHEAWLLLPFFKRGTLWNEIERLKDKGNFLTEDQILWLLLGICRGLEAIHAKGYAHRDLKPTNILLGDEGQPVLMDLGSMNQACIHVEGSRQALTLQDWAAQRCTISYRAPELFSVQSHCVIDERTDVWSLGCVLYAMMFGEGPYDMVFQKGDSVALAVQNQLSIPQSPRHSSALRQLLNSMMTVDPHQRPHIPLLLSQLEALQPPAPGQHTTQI
Sequence of SLK (Q9H2G2 whole entry, looked up): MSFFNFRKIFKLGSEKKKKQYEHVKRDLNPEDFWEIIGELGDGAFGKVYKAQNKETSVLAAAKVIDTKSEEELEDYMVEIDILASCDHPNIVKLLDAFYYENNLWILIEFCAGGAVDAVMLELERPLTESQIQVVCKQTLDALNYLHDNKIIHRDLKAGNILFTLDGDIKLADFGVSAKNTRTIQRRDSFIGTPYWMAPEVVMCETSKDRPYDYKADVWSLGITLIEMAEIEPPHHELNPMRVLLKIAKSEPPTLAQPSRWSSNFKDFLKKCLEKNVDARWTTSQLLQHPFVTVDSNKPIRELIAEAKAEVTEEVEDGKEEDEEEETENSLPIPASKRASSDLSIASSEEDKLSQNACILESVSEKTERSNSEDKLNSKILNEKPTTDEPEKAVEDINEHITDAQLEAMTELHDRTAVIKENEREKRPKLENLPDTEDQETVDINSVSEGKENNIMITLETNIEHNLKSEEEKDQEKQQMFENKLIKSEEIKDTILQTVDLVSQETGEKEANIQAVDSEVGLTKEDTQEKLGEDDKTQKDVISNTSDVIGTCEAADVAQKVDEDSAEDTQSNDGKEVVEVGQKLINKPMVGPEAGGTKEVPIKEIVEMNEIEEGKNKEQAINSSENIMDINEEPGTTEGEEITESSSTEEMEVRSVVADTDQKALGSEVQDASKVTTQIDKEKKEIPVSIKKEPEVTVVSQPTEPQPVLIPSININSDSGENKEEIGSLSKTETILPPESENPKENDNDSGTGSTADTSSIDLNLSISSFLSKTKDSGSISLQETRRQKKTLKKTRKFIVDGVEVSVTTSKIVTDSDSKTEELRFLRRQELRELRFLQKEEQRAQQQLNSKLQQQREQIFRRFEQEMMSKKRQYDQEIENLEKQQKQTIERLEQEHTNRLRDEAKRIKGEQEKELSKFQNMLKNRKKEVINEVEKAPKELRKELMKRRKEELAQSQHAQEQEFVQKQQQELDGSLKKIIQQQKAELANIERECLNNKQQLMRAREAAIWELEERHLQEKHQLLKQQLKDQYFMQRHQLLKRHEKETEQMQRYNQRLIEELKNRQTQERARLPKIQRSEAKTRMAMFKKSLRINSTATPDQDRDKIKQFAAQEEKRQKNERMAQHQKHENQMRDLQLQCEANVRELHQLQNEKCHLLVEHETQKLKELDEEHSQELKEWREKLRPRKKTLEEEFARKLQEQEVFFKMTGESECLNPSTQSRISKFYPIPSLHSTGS
Sequence of SRC (P12931 whole entry, looked up): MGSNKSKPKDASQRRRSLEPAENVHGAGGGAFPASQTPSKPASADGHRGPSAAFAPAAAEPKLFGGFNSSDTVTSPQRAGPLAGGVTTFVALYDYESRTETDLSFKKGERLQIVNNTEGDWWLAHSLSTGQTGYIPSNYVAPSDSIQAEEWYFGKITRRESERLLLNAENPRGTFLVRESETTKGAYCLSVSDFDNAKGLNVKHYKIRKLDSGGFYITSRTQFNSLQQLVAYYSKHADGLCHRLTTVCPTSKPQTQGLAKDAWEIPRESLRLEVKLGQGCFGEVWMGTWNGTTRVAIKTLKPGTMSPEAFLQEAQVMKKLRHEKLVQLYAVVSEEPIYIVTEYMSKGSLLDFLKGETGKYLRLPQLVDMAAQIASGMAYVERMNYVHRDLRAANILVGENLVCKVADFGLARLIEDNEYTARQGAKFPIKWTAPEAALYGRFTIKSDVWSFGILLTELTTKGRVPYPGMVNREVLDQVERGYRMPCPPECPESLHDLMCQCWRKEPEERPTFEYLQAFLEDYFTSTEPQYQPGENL

Row | apparent dissociation constant (-log10 M) (ACVR1B) | apparent dissociation constant (-log10 M) (ADCK4) | apparent dissociation constant (-log10 M) (ADCK5) | apparent dissociation constant (-log10 M) (AKT1) | apparent dissociation constant (-log10 M) (BRD4) | apparent dissociation constant (-log10 M) (BTK) | apparent dissociation constant (-log10 M) (CAMK1) | apparent dissociation constant (-log10 M) (CAMK1D) | apparent dissociation constant (-log10 M) (CAMKK2) | apparent dissociation constant (-log10 M) (CDK9) | apparent dissociation constant (-log10 M) (CSNK1G3) | apparent dissociation constant (-log10 M) (DDR2) | apparent dissociation constant (-log10 M) (EIF2AK3) | apparent dissociation constant (-log10 M) (EPHB3) | apparent dissociation constant (-log10 M) (JAK2) | apparent dissociation constant (-log10 M) (MAP3K1) | apparent dissociation constant (-log10 M) (PAK6) | apparent dissociation constant (-log10 M) (PCTK3) | apparent dissociation constant (-log10 M) (PHKG2) | apparent dissociation constant (-log10 M) (PLK4) | apparent dissociation constant (-log10 M) (PRKACB) | apparent dissociation constant (-log10 M) (PTK2B) | apparent dissociation constant (-log10 M) (RNASEL) | apparent dissociation constant (-log10 M) (RP6-213H19 1) | apparent dissociation constant (-log10 M) (SLK) | apparent dissociation constant (-log10 M) (SRC) | apparent dissociation constant (-log10 M) (STK16) | apparent dissociation constant (-log10 M) (TNK1) | apparent dissociation constant (-log10 M) (UHMK1) | apparent dissociation constant (-log10 M) (WNK1) | apparent dissociation constant (-log10 M) (AURKC) | apparent dissociation constant (-log10 M) (CSNK1G2) | apparent dissociation constant (-log10 M) (ROCK2) | Compound | apparent dissociation constant (-log10 M) (MAPK15)
1 | < 6 | < 6 | < 6 | < 6 | < 6 | < 6 | < 6 | < 6 | < 6 | < 6 | < 6 | < 6 | < 6 | < 6 | < 6 | < 6 | < 6 | < 6 | < 6 | < 6 | < 6 | < 6 | < 6 | < 6 | < 6 | < 6 | < 6 | < 6 | < 6 | < 6 | – | – | – | CCNC(=O)Nc1ccc(-c2nc(N3CCOC[C@@H]3C)c3c(n2)C(C)(C)S(=O)(=O)C3)cc1 [CZ415] | < 6
2 | < 6 | – | – | < 6 | – | < 6 | – | – | < 6 | – | – | – | – | < 6 | < 6 | < 6 | – | < 6 | < 6 | < 6 | – | < 6 | – | – | < 6 | < 6 | < 6 | < 6 | – | – | < 6 | < 6 | < 6 | COc1ccc(-c2ccc3c(N4CCOC[C@@H]4C)nc(N4CCOC[C@@H]4C)nc3n2)cc1CO [AZD8055] | –
